Tests used:
[1] = tested on: peptide loaded RMA-B7 target cells; test: Peptide immunization of HLA-*B0702 transgenic mice for CTL induction, 51Cr release assay; assay type: in vivo; settings: for CTL response after peptide immunization: HLA-*B0702 transgenic mice; for R/T: responder (specific lysis ≧ 10%) versus tested mice / mice tested generating specific CTL: peptide immunization; for R/T: responder (specific lysis ≧ 10%) versus tested mice: six mice per peptide
Experimental: Female HLA-*B0702 transgenic mice at 8-10 weeks of age were injected subcutaneously (s.c.) at the base of the tail with 50 μg of individual HLA-B0702 restricted hTERT peptides supplemented with 140 μg of helper peptide co-emulsified in incomplete Freund's adjuvant (Difco, Detroit, Mich.). Ten days later, spleen cells of individual mouse were re-activated in vitro with relevant peptide in six wells plate. Effector CTL cells were tested in a standard 4-5 h ^51Cr-release assay, using relevant or negative control peptide-pulsed, HLA-*B0702 transfected RMA cells (RMA-B7). Mice were considered as responders, when specific lysis ≧10% was observed.
(§1) Cytotoxicity assays were performed by using standard 4-5 h ^51Cr release assay as previously described (Firat et al. J Gene Med 2002; 4:38-45). Specific lysis in % was calculated by subtracting non-specific lysis observed with the control peptide. Mice were considered as responsers when specific lysis ≧10% was observed.

[2] = tested on: human tumour cell lines of different origins; test: Capacity of hTERT-specific CTLs from donors to lyse human tumour cell lines of different origins (summary); assay type: cell-based; settings: CTL lines generated in vitro from healthy donors
Experimental: as §1
(§2) Human CTL from donors were obtained after in vitro re-activated PBMC for 4 weeks with hTERT peptide HLA-B0702 restricted as described previously (Hernandez et al. Proc Natl Acad Sci U.S.A. 2002; 99:12275-80). Briefly, Ficoll-purified human PBMCS were thawed and incubated (4×10^6/well) in 24-well plates in RPMI 1640, 1 mM sodium pyruvate, 100 IU/ml penicillin, 100 μg/ml streptomycin, 10 mM HEPES, 5×10^-5 M 2-mercaptoethanol supplemented with heat inactivated 10% human serum (Institut Jacques Boy, Reims, France). They were stimulated with each hTERT peptide (10 μg/ml) and recombinant human IL-7 (20 ng/ml; R&D Systems) was added.
On day 7, lymphocytes were re-activated with peptide-pulsed γ-irradiated autologous PBMCs (50 Gy). The next day, 20 IU/ml human IL-2 (Roche, Mannheim, Germany) was added to the culture. CTL lines were re-activated weekly during four cycles. For some donors, CD8^+ T cells were purified after three round cycle, using CD8 microbeads (Miltenyi Biotec, Bergisch Gladbach, Germany.) according to manufacturer's recommendations and activated once before functional test. Cytolytic assays were performed 6 days after the last re-activation against various ^51Cr-labeled targets: T2-B7 pulsed with tested hTERT peptides or irrelevant peptide, or tumor cell lines.

[3] = tested on: hTERT peptide-pulsed target cells; test: Lv-hTERT immunization of HLA-B7 Tg mice, CTL response in chromium release assay; assay type: in vivo; settings: Flap+ Lv-hTRT immunization, by restimulating peptide
Experimental: (§3) Immunization with TRIPLv-hTERT was performed as a single subcutaneously (at the base of the tail) injection of 1500 ng of TripLv-hTERT suspension or control vector.
(§4) 12 days later, hTERT peptide-specific T among splenocytes were detected by an ELISPOT assay (see below). Cytotoxicity assays were performed on the same immune splenocyte populations after in vitro stimulation with peptide-pulsed as described above.
Mice were considered as responsers when specific lysis ≧10% was observed.

[4] = tested on: RMA-B7 targets loaded with relevant peptides; test: DNA immunization (hTERT) in HLA-*B0702 transgenic mice, peptide-specific CTL; assay type: in vivo; settings: immunised with cDNA encoding hTERT; FIG. 2
Experimental: HLA-B7 Tg mice and one naïve mice (N) were immunized with 100 μg DNA encoding Htert. On day 14, spleen cells from each mouse were separately in vitro stimulated with different hTERT-derived peptides. Effector cells were essayed 6 days later against RMA-B7 targets loaded with relevant (▪) or control (□) peptides as described in the material and methods. Percentage of lysis at a 60/1 ratio are shown (results from two independent experiments).
The LvCMV-hTERT plasmid vector encoding the hTERT gene under the control of CMV promotor was purified on plasmid Giga kit columns under endotoxin-free conditions (Qiagen). Anesthetized HLA-*B0702 Transgenic mice were injected with said plasmid (50 μg each side) into regenerating tibialis anterior muscles. 14 days after, spleen cells of individual mouse were re-activated in vitro with peptide-pulsed (10 μg/ml), syngenic γ-irradiated (50 Gy) LPS-lymphoblast in complete medium, supplemented with 10% supernatant from Con A-activated rat spleens cells. Cytotoxicity assays were performed 6 days as described.
as §1

T2-B7 cells = test: Induction of primary CTL responses from healthy donors' PBMC by hTERT peptides; assay type: cell-based, human; settings: HLA-B0702 healthy donors, in vitro immunization; FIG. 3
Description: T-lymphocyte cells from HLA-*B0702^+ healthy donors were activated with each of the six hTERT peptide-pulsed autologous PBMC as detailed in materials and Method. After four rounds of weekly stimulation, effector cells, pulsed with relevant (▪) or control (□) peptides, were essayed for lytic activity against ^51Cr-labeled T2-B7 cells. Percentage of lysis at a 20/1 effector-target ratio is shown. Results from 8 out of 10 donors are presented (d1 to d8).
as §2
On day 7, lymphocytes were re-activated with peptide-pulsed γ-irradiated autologous PBMCs (50 Gy). The next day, 20 IU/ml human IL-2 (Roche, Mannheim, Germany) was added to the culture. CTL lines were re-activated weekly during four cycles. […]

[5] = tested on: hTERT peptide-pulsed target cells; test: Lv-hTERT immunization of HHD mice (HLA-A2.1), CTL response in chromium release assay; assay type: in vivo
Experimental: as §3, §4, §1

APRCRAVRSL [p4]
CTL response after peptide immunization [1]: strong CTL response in all mice tested | R/T: responder (specific lysis ≧ 10%) versus tested mice [1]: 6/6 | tumor cell recognition by CTL lines specific for the peptide [2]: do not lyse all the type of tested tumors | R/T [3]: 6/8

APSFRQVSCL [p68]
CTL response after peptide immunization [1]: strong CTL response in all mice tested | R/T: responder (specific lysis ≧ 10%) versus tested mice [1]: 6/6 | tumor cell recognition by CTL lines specific for the peptide [2]: only recognize the T1-B7 targets | R/T [3]: 4/8

MPRAPRCRA [p1]
R/T: responder (specific lysis ≧ 10%) versus tested mice [1]: 4/6 | tumor cell recognition by CTL lines specific for the peptide [2]: only recognize the T1-B7 targets | R/T [3]: 4/8

RPAEEATSL [p277]
CTL response after peptide immunization [1]: moderate specific CTL | mice tested generating specific CTL [1]: 50 % of mice tested | R/T: responder (specific lysis ≧ 10%) versus tested mice [1]: 3/6 | tumor cell recognition by CTL lines specific for the peptide [2]: recognize renal cancer (293 UT) but neither melanoma nor lymphoid tumor cells | R/T [3]: 5/8

RPSFLLSSL [p342]
CTL response after peptide immunization [1]: moderate specific CTL | mice tested generating specific CTL [1]: 50 % of mice tested | R/T: responder (specific lysis ≧ 10%) versus tested mice [1]: 3/6 | mice with hTERT peptide-specific CTLs induced [4]: about 15 % of mice | donors with peptide-specific CTL responses (T2-B7 cells): 20 % of donors | tumor cell recognition by CTL lines specific for the peptide [2]: recognize only melanoma cells (LB 34 and KU 268 target) | R/T [3]: 4/8

RPSLTGARRL [p351]
R/T: responder (specific lysis ≧ 10%) versus tested mice [1]: 4/6 | tumor cell recognition by CTL lines specific for the peptide [2]: recognize the majority of tumor cell lines tested | R/T [3]: 5/8

p540: HLA-A2.1-restricted hTERT-derived peptide, epitope previously classified as dominant (ILAKFLHWL; UniProt O14746 540-548, looked up, fragment)
CTL responses specific for HLA-A2.1 restricted epitopes ([5]; HHD mice immunized with Lv-hTERT): potent CTL responses | R/T ([5]; HHD mice, Flap+ Lv-hTRT immunization, by restimulating peptide): 2/6
